Data set [1] addresses T1, Cathepsin B1 isotype 1 (Schistosoma mansoni) (UniProt Q8MNY2).
T1 sequence (whole entry): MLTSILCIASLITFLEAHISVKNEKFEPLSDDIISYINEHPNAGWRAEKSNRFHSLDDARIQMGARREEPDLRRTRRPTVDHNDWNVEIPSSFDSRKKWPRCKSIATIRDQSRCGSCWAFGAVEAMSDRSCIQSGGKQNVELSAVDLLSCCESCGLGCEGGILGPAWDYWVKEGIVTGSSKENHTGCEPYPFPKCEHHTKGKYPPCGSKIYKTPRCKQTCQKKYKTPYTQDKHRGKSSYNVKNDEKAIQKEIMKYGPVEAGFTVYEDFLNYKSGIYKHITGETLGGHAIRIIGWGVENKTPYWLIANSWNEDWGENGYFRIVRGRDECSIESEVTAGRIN
Kind of data set: Inhibition of Schistosoma mansoni cathepsin B1 using Z-Phe-Arg-aminomethylcoumarin as substrate at 100 uM by fluorescence method relative to control.

Data set [2] concerns Schistosoma mansoni. The data set is described as follows: Antischistosomal activity against male Schistosoma mansoni assessed as worm killing effect at 100 uM measured after 24 hrs by phase-contrast microscopy relative to control. It counts as functional.
Data set [3] relates to Schistosoma mansoni. The data set is described as follows: Antischistosomal activity against Schistosoma mansoni infected in Swiss albino mouse assessed as reduction in worm burden at 20 mg/kg, po administered for 5 days relative to control. Particulars: time 5 day. It counts as functional. The arrangement: scale not given: the % may be the effect or the level left.
Data set [4] has as its system Schistosoma mansoni. The data set is described as follows: Antischistosomal activity against Schistosoma mansoni infected in Swiss albino mouse assessed as reduction in intestinal tissue egg burden at 20 mg/kg, po administered for 5 days relative to control. More on the design: scale not given: the % may be the effect or the level left. As to conditions: time 5 day. It counts as functional.

In data set [5] the test system is Schistosoma mansoni. Kind of data set: Potentiation of praziquantel-induced antischistosomal activity against Schistosoma mansoni infected in Swiss albino mouse assessed as worm burden at 20 mg/kg, po administered for 5 days (reference value: 60%). It counts as functional. Particulars: time 5 day.
Data set [6] concerns Schistosoma mansoni. The data set is described as follows: Potentiation of praziquantel-induced antischistosomal activity against Schistosoma mansoni infected in Swiss albino mouse assessed as intestinal egg burden at 20 mg/kg, po administered for 5 days (reference value: 67%). Particulars: time 5 day. It counts as functional.
For data set [7], the system named is Schistosoma mansoni. Kind of data set: Antischistosomal activity against Schistosoma mansoni Schistosomula assessed as worm death at 10 uM incubated for 24 hrs relative to control. It counts as functional.
The subject of data set [8] is Schistosoma mansoni. The data set is described as follows: Antischistosomal activity against juvenile Schistosoma mansoni assessed as worm death at 10 uM incubated for 120 hrs relative to control. It counts as functional.
The subject of data set [9] is Schistosoma mansoni. Kind of data set: Antischistosomal activity against adult Schistosoma mansoni assessed as worm death at 10 uM incubated for 120 hrs relative to control. It counts as functional.
In data set [10] the target is T2, Thioredoxin glutathione reductase (Schistosoma mansoni, UniProt Q962Y6).
T2 sequence (Q962Y6 whole entry): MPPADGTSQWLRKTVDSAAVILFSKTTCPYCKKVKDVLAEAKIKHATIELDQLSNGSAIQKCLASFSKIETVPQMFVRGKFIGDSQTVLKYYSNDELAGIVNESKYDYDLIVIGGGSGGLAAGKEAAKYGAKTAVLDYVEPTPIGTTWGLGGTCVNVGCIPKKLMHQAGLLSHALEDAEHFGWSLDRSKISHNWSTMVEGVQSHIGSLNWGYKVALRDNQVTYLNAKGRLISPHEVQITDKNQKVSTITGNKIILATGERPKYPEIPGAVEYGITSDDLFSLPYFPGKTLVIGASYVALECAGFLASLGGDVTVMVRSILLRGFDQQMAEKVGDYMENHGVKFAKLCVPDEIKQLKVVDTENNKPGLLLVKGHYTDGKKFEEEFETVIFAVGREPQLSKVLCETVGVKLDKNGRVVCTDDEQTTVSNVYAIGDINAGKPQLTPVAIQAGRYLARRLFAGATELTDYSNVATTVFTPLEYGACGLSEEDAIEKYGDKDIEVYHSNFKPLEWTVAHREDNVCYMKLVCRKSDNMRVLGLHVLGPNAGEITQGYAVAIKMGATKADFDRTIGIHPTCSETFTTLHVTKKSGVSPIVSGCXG
Kind of data set: Inhibition of Schistosoma mansoni thioredoxin glutathione reductase incubated for 30 mins by DTNB assay.

The test system of data set [11] is Schistosoma japonicum. The data set is described as follows: Antischistosomal activity against Schistosoma japonicum assessed as worm death at 10 uM incubated for 120 hrs relative to control. It counts as functional. As to conditions: Schistosoma japonicum.
For data set [12], the system named is Schistosoma japonicum. The data set is described as follows: Antischistosomal activity against Schistosoma japonicum assessed as worm mortality at 10 ug/ml incubated for 72 hrs by microscopic method relative to control. It counts as functional. As to conditions: dose 10 µg/ml.
Data set [13] relates to Schistosoma japonicum. Kind of data set: Schistosomicidal-activity against adult Schistosoma japonicum at 10 uM incubated for 72 hrs by inverted microscopic method relative to control. It counts as functional.
Data set [14] has as its target T3, Histone deacetylase 8 (Homo sapiens, UniProt Q9BY41).
T3 sequence (Q9BY41 whole entry): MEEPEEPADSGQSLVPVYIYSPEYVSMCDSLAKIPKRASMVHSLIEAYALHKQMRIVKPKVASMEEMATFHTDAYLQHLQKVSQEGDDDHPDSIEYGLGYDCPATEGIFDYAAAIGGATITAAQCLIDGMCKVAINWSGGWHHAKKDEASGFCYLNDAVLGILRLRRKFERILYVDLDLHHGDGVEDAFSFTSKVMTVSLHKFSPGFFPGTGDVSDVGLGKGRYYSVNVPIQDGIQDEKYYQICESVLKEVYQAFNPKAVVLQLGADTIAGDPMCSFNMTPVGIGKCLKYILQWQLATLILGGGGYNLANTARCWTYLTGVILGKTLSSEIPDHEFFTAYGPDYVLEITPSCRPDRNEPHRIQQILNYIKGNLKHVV
Kind of data set: Inhibition of human HDAC8 using Fluor de Lys as substrate by fluorimetric method.

In data set [15] the target is T4, Histone deacetylase 8 (Schistosoma mansoni, UniProt A5H660).
T4 sequence (A5H660 whole entry): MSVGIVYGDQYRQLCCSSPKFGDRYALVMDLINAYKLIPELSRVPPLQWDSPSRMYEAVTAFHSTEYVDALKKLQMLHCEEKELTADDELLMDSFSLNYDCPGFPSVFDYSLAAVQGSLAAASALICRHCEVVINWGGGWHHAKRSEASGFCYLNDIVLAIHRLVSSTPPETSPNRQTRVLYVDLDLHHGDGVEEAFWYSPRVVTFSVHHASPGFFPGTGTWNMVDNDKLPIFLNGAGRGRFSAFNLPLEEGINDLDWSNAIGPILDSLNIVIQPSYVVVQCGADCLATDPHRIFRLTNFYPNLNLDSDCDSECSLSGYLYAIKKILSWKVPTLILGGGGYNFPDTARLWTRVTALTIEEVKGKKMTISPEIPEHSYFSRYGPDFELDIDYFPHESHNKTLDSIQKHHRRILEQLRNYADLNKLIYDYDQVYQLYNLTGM
Kind of data set: Inhibition of Schistosoma mansoni HDAC8 using fluorogenic substrate by fluorescence method.

In data set [16] the target is T5, HDAC1 (histone deacetylase 1) (Homo sapiens, UniProt Q13547). The data set is described as follows: Inhibition of human HDAC1 at 200 uM using Z-Lys(Ac)-AMC as substrate by fluorimetric method relative to control. Particulars: HDAC1 enzyme, probe Z-Lys(Ac)-AMC.
T5 sequence (Q13547 whole entry): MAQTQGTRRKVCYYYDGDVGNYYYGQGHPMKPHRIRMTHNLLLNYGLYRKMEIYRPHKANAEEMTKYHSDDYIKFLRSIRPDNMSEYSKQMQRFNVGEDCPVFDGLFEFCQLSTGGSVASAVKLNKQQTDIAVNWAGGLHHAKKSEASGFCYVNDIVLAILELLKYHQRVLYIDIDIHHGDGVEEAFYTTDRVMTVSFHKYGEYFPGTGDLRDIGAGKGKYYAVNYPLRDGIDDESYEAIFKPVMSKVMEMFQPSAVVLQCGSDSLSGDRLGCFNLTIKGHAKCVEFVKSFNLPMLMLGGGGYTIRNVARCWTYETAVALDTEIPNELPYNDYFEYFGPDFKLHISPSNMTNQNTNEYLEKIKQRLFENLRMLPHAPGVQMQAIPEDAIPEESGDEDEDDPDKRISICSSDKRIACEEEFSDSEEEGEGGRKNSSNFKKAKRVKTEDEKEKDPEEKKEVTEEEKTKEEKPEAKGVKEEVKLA
For data set [17], the target named is T6, Protein deacetylase HDAC6 (Homo sapiens, UniProt Q9UBN7).
T6 sequence (Q9UBN7 whole entry): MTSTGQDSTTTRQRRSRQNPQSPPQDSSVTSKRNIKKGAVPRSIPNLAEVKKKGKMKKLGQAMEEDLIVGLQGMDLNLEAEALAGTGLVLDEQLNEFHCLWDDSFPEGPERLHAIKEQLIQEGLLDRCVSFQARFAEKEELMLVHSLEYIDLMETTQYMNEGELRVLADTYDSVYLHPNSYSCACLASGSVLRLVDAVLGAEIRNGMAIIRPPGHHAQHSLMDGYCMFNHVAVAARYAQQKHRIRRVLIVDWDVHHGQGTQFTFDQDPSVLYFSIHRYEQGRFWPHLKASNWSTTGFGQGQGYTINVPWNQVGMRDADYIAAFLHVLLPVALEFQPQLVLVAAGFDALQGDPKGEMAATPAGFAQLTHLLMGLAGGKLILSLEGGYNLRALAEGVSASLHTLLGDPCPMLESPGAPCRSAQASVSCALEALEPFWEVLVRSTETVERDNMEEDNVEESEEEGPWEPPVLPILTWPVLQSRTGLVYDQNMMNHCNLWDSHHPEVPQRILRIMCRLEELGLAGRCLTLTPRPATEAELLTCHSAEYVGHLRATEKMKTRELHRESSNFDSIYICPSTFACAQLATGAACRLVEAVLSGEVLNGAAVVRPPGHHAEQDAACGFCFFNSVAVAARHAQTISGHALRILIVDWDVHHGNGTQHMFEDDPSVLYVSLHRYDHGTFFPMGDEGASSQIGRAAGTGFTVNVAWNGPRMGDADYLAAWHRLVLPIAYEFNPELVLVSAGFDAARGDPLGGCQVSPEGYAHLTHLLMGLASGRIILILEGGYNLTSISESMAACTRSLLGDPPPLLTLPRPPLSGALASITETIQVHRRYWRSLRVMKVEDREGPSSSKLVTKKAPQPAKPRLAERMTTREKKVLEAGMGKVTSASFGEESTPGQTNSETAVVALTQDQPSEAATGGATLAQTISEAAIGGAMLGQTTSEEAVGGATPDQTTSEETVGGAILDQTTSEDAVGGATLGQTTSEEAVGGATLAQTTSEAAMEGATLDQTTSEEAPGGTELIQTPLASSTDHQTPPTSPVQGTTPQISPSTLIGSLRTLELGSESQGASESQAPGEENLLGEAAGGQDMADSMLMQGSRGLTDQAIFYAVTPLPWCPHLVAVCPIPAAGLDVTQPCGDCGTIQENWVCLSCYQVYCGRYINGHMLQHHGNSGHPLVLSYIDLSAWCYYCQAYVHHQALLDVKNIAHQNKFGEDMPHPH
The data set is described as follows: Inhibition of human HDAC6 using Z-Lys(Ac)-AMC as substrate by fluorimetric method.

For data set [18], the target named is T5, HDAC1 (histone deacetylase 1). Kind of data set: Inhibition of human HDAC1 using Z-Lys(Ac)-AMC as substrate at 1 uM by fluorimetric method relative to control. Particulars: HDAC1 enzyme, probe Z-Lys(Ac)-AMC.
Data set [19] has as its target T4, Histone deacetylase 8. The data set is described as follows: Inhibition of Schistosoma mansoni HDAC8 expressed in Escherichia coli using Fluor de Lys as substrate incubated for 90 mins by fluorescence method.
The next data set concerns the target Histone deacetylase 1 (Homo sapiens, UniProt Q13547). Kind of data set: Inhibition of human HDAC1 (1 to 482 reidue) expressed in sf9 cells using ZMAL(Cbz-(Ac)Lys-AMC as substrate preincubated for 90 mins followed by trypsin addition and measured after 20 mins by fluorimetric method.
In data set [20] the target is T6, Protein deacetylase HDAC6. Kind of data set: Inhibition of human HDAC6 using ZMAL(Cbz-(Ac)Lys-AMC as substrate preincubated for 90 mins followed by trypsin addition and measured after 20 mins by fluorimetric method.
For data set [21], the target named is T3, Histone deacetylase 8. Kind of data set: Inhibition of human HDAC8 using Fluor de Lys as substrate incubated for 90 mins by fluorescence method.

The text below walks through data of ChEMBL document CHEMBL4811216, “Chemotherapy for human schistosomiasis: how far have we come? What's new? Where do we go from here?” (RSC Med Chem, 2020).

Histone deacetylase 1, sequence (Q13547 whole entry): as the sequence (Q13547 whole entry) above

Broadly, the inhibition is the percentage by which the read-out fell short of the control. In data set [1], `O=C(c1ccc(CCl)c([N+](=O)[O-])c1)N1CCOCC1` registered an inhibition of under 27%.

As for `COc1ccc(-c2nc(-c3ccccc3OC)[nH]c2-c2ccc(OC)cc2)cc1`, the Activity with Schistosoma mansoni [2] is reported as 33%; with Schistosoma mansoni [3], under 17%; in the data set on Schistosoma mansoni [4], under 17%; with Schistosoma mansoni [5] it was 88%; with Schistosoma mansoni [6] it was 83%.

One may read the mortality as the percentage killed. A word on the IC50: it is the concentration at which inhibition is half-maximal. With `COc1ccc(C(Nc2cc(C)ccn2)c2ccc3ccc(C)nc3c2O)cc1` (stereo not drawn), the mortality at 10 µM turned out to be 20% with Schistosoma mansoni [7], 24% with Schistosoma mansoni [8], 53% in the data set on Schistosoma mansoni [9] and 56% in the data set with Schistosoma japonicum [11]. The same compound returned an IC50 in [10] of 0.13 µM.

As to `OC(CN1CCCC1)Cn1c2ccc(Cl)cc2c2cc(Cl)ccc21` (stereo not drawn), the Activity in the data set on Schistosoma japonicum [12] is listed as 100%.

Regarding `CCCC(=O)OCCNC(=O)c1ccc(CCl)c([N+](=O)[O-])c1`, in data set [1], the inhibition is under 27%.

On to `O=C(CCl)N1CC(=O)N2CCc3sccc3C2C1` (stereo not drawn), for which the Activity in the data set on Schistosoma japonicum [13] was 100%.

Turning to `O=C(NO)c1cccc(C(=O)NOCc2ccc(Cl)cc2Cl)c1`, the IC50 on Histone deacetylase 8 [14] was 0.63 µM; on Histone deacetylase 8 [15] it was 0.4 µM; in [17], 5.12 µM. Besides, in data set [16], the inhibition at 200 µM was 47.5%. Also, the inhibition at 1 µM in data set [18] is under 10%.

For `CCCCCCC(=O)N(O)C1CC(=O)C(c2ccc(Cl)cc2)C1=O` (stereo not drawn), the IC50 against Histone deacetylase 8 [19] came to 5.5 µM; against Histone deacetylase 1 it was 3.98 µM; in data set [20], 2.65 µM; on Histone deacetylase 8 [21], 7.69 µM.
